Data on 1 compound can be found in article PMC6698751 (2019).

Test [1] deals with glutamine-II riboswitch (RNA used for crystallization) (RNA, riboswitch, 5-bromocytidine at 8 and 9) CGUUCACCCUUCGGGGCGCAUGAAAUGGGAGUAGGGAACGGGAUUCUCAU
The experiment in a line: X-ray crystallography, 2.3 Å. The conditions noted are these: Mg2+ in PDB record; strand-exchanged dimer; metal ion directly bound to glutamine carboxylate.

Test [2] has as its system glutamine-II riboswitch (unmodified; RNA used for calorimetry) (RNA, riboswitch) CGUUCACCCUUCGGGGCGCAUGAAAUGGGAGUAGGGAACGGGAUUCUCAU
Briefly: isothermal titration calorimetry. The conditions noted are these: 100 mM K+, 10 mM Mg2+; 40 mM HEPES-K pH 7.0 (7.2 in Figure 4 legend), 298 K; mean of three titrations. (In general: ITC needs no label: the signal is the heat of the interaction.)

For test [3], the system named is C1Z glutamine-II riboswitch (RNA, riboswitch, zebularine at 1 (C1Z)) CGUUCACCCUUCGGGGCGCAUGAAAUGGGAGUAGGGAACGGGAUUCUCAU
The experiment in a line: isothermal titration calorimetry. The conditions noted are these: 100 mM K+, 10 mM Mg2+; 40 mM HEPES-K pH 7.0, 298 K; no measurable heat; 2-4 mM L-glutamine in syringe.

Test [4] has as its system C39Z glutamine-II riboswitch (RNA, riboswitch, zebularine at 39 (C39Z)) CGUUCACCCUUCGGGGCGCAUGAAAUGGGAGUAGGGAACGGGAUUCUCAU
Briefly: isothermal titration calorimetry. The conditions noted are these: 100 mM K+, 10 mM Mg2+; 40 mM HEPES-K pH 7.0, 298 K; 2-4 mM L-glutamine in syringe.

Test [5] has as its system G18 O2'H glutamine-II riboswitch (RNA, riboswitch, 2'-deoxy at 18 (2'-hydroxyl of G18 removed)) CGUUCACCCUUCGGGGCGCAUGAAAUGGGAGUAGGGAACGGGAUUCUCAU
Briefly: isothermal titration calorimetry. The conditions noted are these: 100 mM K+, 10 mM Mg2+; 40 mM HEPES-K pH 7.0, 298 K; 2-4 mM L-glutamine in syringe.

The subject of test [6] is two-piece glutamine-II riboswitch (RNA, riboswitch) CGUUCACCCUUCGGGGCGCA/UGAAAUGGGAGUAGGGAACGGGAUUCUCAU
Briefly: isothermal titration calorimetry. The conditions noted are these: 100 mM K+, 10 mM Mg2+; equimolar mixture of two strands, 40 mM HEPES-K pH 7.0, 298 K.

Regarding `NC(=O)CC[C@H](N)C(=O)O`, the binding entry in test [1] is given as “yes”; in test [3] it was “no”; in test [4], “no”; in test [5] it was “no”; in test [6], “yes”. In test [2], the Kd (in general, a measure of binding affinity in units of concentration) turned out to be 190 ± 90 µM.
